Assay results published in paper PMC12655426 (Pharmaceutics, 2025).
Where two headings read alike, the source gives them in different places.

Assays:
Type in all cases: cell-based
human OAT1 = target: T1, human OAT1 (Homo sapiens, UniProt Q4U2R8); test: Polyphenol inhibition of OAT1-mediated OTA uptake in HEK293 cells; details: for OTA uptake, fraction of vehicle control: polyphenol 10 μM, 300 nM OTA, 5 min
T1 construct: host or cells: HEK293, stably transfected
T1 sequence (Q4U2R8 1-563): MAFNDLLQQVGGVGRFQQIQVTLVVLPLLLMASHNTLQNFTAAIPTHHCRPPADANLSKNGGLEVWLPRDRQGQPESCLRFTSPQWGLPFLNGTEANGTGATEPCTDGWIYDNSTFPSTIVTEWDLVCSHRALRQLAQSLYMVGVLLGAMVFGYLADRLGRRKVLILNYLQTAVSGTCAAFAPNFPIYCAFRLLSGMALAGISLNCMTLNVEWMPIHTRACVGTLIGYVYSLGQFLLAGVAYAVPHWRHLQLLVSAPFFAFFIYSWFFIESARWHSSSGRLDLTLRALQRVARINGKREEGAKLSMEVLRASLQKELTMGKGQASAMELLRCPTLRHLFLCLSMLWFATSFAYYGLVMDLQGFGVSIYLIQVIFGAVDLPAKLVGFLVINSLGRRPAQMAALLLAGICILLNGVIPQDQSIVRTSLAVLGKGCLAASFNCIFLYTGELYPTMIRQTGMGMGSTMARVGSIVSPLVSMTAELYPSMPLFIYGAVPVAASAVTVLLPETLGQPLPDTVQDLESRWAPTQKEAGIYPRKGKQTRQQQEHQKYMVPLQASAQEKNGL
Experimental: (§1) Because OATP1A2 is expressed at exceptionally low levels in the apical membrane of the kidney as well as in the liver and intestine, interaction studies focused on OAT1, OAT3, OAT4, and BCRP as these will have a greater impact on circulating polyphenol levels. […] Uptake assays were performed in three independent experiments, each in technical triplicate.
(§2) A p-value < 0.05 was considered statistically significant. For the estimation of IC50 or EC50 values, transport activity data were fitted with the following four-parameter logistic models: V=Bottom+Top−Bottom/1+I/IC50^h for inhibitors V=Bottom+[I]^h×(Top−Bottom)/[I]^h+EC50^h for activators where V is transport activity expressed as a percentage of vehicle control, [I] is inhibitor (or activator) concentration, Top and Bottom are the asymptotic plateaus, IC50 or EC50 is the concentration producing half-maximal inhibition (or activation), and h is the Hill slope. All data analyses were performed using GraphPad Prism version 10.2.3 (GraphPad). Parameter estimates are reported as best-fit ± standard error from three independent experiments, each run in technical triplicate.

OAT3 = target: T2, OAT3 (Homo sapiens, UniProt Q8TCC7); test: Polyphenol inhibition of OAT3-mediated OTA uptake in HEK293 cells; set-up: host or cells: HEK293, stably transfected; details: for OTA uptake, fraction of vehicle control: polyphenol 10 μM, 300 nM OTA, 5 min
T2 sequence (Q8TCC7 1-542): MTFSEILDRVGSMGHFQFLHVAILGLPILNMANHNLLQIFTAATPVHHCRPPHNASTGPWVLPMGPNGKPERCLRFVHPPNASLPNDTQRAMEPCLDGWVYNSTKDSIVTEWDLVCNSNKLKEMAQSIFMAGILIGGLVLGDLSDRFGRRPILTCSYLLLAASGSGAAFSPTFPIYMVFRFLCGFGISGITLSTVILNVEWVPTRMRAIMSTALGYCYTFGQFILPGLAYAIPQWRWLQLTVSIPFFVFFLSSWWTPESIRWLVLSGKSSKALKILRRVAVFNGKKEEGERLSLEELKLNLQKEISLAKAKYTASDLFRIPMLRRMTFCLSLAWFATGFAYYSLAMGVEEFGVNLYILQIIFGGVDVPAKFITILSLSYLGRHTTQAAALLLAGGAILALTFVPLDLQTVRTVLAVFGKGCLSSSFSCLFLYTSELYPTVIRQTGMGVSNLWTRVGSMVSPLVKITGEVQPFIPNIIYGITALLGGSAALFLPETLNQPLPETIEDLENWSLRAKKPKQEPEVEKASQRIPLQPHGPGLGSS
Experimental: as §1, §2

OAT4 = target: T3, OAT4 (Homo sapiens, UniProt Q9NSA0); test: Polyphenol inhibition of OAT4-mediated OTA uptake in HEK293 cells; set-up: host or cells: HEK293, stably transfected; details: polyphenol 10 μM, 300 nM OTA, 5 min
T3 sequence (Q9NSA0 1-550): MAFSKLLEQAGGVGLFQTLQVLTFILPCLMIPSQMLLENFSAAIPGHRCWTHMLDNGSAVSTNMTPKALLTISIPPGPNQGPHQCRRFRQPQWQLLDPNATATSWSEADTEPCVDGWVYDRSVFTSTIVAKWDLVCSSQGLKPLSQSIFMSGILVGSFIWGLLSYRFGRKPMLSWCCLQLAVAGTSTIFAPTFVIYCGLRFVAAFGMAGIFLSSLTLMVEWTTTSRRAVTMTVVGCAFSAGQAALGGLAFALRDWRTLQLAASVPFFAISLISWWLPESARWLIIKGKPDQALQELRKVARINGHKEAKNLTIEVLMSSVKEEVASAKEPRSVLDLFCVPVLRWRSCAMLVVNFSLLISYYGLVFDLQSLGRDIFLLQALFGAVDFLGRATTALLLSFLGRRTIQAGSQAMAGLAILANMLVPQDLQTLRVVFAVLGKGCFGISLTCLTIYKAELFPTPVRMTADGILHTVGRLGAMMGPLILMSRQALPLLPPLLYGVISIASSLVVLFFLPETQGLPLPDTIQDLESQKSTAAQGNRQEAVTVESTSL
Experimental: as §1, §2

human BCRP = target: T4, human BCRP (Homo sapiens, UniProt Q9UNQ0); test: Polyphenol modulation of BCRP-mediated OTA efflux in MDCK-II cells; set-up: host or cells: MDCK-II, transient plasmid transfection
T4 sequence (Q9UNQ0 1-655): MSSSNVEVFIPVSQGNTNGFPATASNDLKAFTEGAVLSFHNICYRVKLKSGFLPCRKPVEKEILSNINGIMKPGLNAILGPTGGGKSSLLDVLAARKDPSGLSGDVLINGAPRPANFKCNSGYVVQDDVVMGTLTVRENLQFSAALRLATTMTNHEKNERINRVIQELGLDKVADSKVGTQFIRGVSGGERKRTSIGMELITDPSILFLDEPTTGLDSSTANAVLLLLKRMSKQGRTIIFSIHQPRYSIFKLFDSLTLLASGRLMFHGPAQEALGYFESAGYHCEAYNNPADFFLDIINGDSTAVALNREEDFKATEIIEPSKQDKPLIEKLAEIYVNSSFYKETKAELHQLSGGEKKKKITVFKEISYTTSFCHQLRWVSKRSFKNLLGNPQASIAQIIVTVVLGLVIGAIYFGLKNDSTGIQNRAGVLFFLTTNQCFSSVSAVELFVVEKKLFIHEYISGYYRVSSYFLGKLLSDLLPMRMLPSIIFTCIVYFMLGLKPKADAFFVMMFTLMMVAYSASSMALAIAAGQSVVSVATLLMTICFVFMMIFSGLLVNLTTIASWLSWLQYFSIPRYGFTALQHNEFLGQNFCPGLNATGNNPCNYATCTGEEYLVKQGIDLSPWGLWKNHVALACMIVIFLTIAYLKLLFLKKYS
Experimental: The concentrations of polyphenols tested were as follows: ECG and miquelianin: 100, 200, 400, 600, 800, 1000 μM; caffeic acid: 50, 100, 500, 1000, 5000, 10,000 μM; luteolin: 0.1, 1, 10, 20, 25, 40, 50, 60, 100, 150 μM; myricetin: 5, 10, 50, 100, 250, 500, 650, 750, 850, 1000 μM. All other assay conditions were as described above. Transport activity was expressed as percent of vehicle control and fitted to a four-parameter logistic model to obtain half-maximal inhibitory concentration (IC50) values (for inhibition) or half-maximal effective concentration (EC50) values (for activation). Three independent experiments, each with technical triplicate, were performed for every compound.
as §2

Compound	OTA uptake, fraction of vehicle control (human OAT1)	OTA uptake, fraction of vehicle control (OAT3)	OTA uptake, fraction of vehicle control (OAT4)	effect on BCRP-mediated OTA transport (human BCRP; 300 nM OTA, 100 to 1000 μM)	IC50 (human BCRP)	EC50 (human BCRP)	maximal stimulation of BCRP-mediated OTA efflux (human BCRP; 300 nM OTA)	IC50 (human BCRP; read-out: IC50, inhibition of BCRP-mediated OTA transport, 300 nM OTA, efflux ratio as % of vehicle control)	decrease of OAT1-mediated OTA uptake (human OAT1; 10 µM)	decrease of OAT3-mediated OTA uptake (OAT3; 10 µM)
quercetin 3-O glucuronide [Miquelianin]	no significant effects	0.58 fold of vehicle control	no significant effects	no appreciable inhibition or activation						
O=c1c(O)c(-c2cc(O)c(O)c(O)c2)oc2cc(O)cc(O)c12 [myricetin]	0.73 fold of vehicle control	0.74 fold of vehicle control	0.82 fold of vehicle control		425 µM					
O=C(O)/C=C/c1ccc(O)c(O)c1 [caffeic acid]	did not significantly inhibit	did not significantly inhibit	did not significantly inhibit			714 µM	around 2 fold of control			
O=C(O[C@@H]1Cc2c(O)cc(O)cc2O[C@@H]1c1ccc(O)c(O)c1)c1cc(O)c(O)c(O)c1 [ECG, (-)-Epicatechin-3-O-gallate]	did not significantly inhibit	did not significantly inhibit	did not significantly inhibit					495 µM		
O=c1cc(-c2ccc(O)c(O)c2)oc2cc(O)cc(O)c12 [luteolin]	0.28 fold of vehicle control	0.36 fold of vehicle control	0.7 fold of vehicle control		22 µM				72%	64%
